Assay results as given in ChEMBL document CHEMBL3044692, “Biological activity of alpha-thujaplicin, the isomer of hinokitiol” (Biol Pharm Bull, 2004).
Converted amounts (≈) assume the structure as drawn. The source made the active and inactive calls. The calls are words filed in the database; no cut-off is given here.

Experiments:
[1] = tested on: Reticulitermes speratus; experiment: Insecticidal activity against Reticulitermes speratus assessed as mortality at 0.05 g/m'2 at 48 hr relative to control; format: functional
[2] = tested on: Dermatophagoides farinae; experiment: Acaricidal activity against Dermatophagoides farinae assessed as mortality at 0.02 g/m'2 after 24 hr relative to control; format: functional
[3] = tested on: Reticulitermes speratus; experiment: Insecticidal activity against Reticulitermes speratus assessed as mortality at 0.1 g/m'2 at 48 hr relative to control; format: functional
[4] = tested on: Reticulitermes speratus; experiment: Insecticidal activity against Reticulitermes speratus at 48 hr; format: functional
[5] = tested on: Reticulitermes speratus; experiment: Insecticidal activity against Reticulitermes speratus assessed as mortality at 0.03 g/m'2 at 24 hr relative to control; format: functional
[6] = tested on: Dermatophagoides farinae; experiment: Acaricidal activity against Dermatophagoides farinae assessed as mortality at 1 g/m'2 after 24 hr relative to control; format: functional
[7] = tested on: Reticulitermes speratus; experiment: Insecticidal activity against Reticulitermes speratus assessed as mortality at 0.02 g/m'2 at 48 hr relative to control; format: functional
[8] = tested on: Phomopsis obscurans; experiment: Antifungal activity against Phomopsis obscurans MAFF 744018 after 15 days by agar dilution method; format: functional; details: Paraphomopsis obscurans, MAFF 744018, 360 h
[9] = tested on: Thanatephorus cucumeris; experiment: Antifungal activity against Thanatephorus cucumeris IFO 30455 after 15 days by agar dilution method; format: functional; details: IFO 30455, 360 h
[10] = tested on: Colon 26; experiment: Cytotoxicity against Mus musculus (mouse) colon 26 cells; format: functional
[11] = tested on: K562; experiment: Cytotoxicity against Homo sapiens (human) K562; format: functional, cell-based
[12] = tested on: Colletotrichum orbiculare; experiment: Antifungal activity against Colletotrichum orbiculare MAFF 306518 after 15 days by agar dilution method; format: functional; details: MAFF 306518, 360 h
[13] = tested on: Reticulitermes speratus; experiment: Insecticidal activity against Reticulitermes speratus assessed as mortality at 0.05 g/m'2 at 24 hr relative to control; format: functional
[14] = tested on: Fusarium solani; experiment: Antifungal activity against Fusarium solani IFO 9955 after 15 days by agar dilution method; format: functional; details: IFO 9955, 360 h
[15] = Cytotoxicity against Mus musculus (mouse) RL male 1; format: functional
[16] = tested on: Reticulitermes speratus; experiment: Insecticidal activity against Reticulitermes speratus assessed as mortality at 0.01 g/m'2 at 24 hr relative to control; format: functional
[17] = tested on: Pythium aphanidermatum; experiment: Antifungal activity against Pythium aphanidermatum IFO 32440 after 15 days by agar dilution method; format: functional; details: IFO 32440, 360 h
[18] = tested on: Reticulitermes speratus; experiment: Insecticidal activity against Reticulitermes speratus assessed as mortality at 0.03 g/m'2 at 48 hr relative to control; format: functional
[19] = tested on: HL-60; experiment: Cytotoxicity against Homo sapiens (human) HL60; format: functional, cell-based
[20] = Cytotoxicity against Homo sapiens (human) KATO III; format: functional
[21] = tested on: Reticulitermes speratus; experiment: Insecticidal activity against Reticulitermes speratus assessed as mortality at 0.04 g/m'2 at 24 hr relative to control; format: functional
[22] = tested on: Botrytis cinerea; experiment: Antifungal activity against Botryotinia fuckeliana IFO 30915 after 15 days by agar dilution method; format: functional; details: IFO 30915, 360 h
[23] = tested on: Dermatophagoides farinae; experiment: Acaricidal activity against Dermatophagoides farinae assessed as mortality at 0.05 g/m'2 after 24 hr relative to control; format: functional
[24] = tested on: Colletotrichum lagenaria; experiment: Antifungal activity against Colletotrichum lagenaria after 15 days by agar dilution method; format: functional; details: 360 h
[25] = tested on: Legionella pneumophila; experiment: Antibacterial activity against Legionella pneumophila SG 1 after 7 days by agar dilution method; format: functional; details: SG 1, 168 h
[26] = tested on: Dermatophagoides farinae; experiment: Acaricidal activity against Dermatophagoides farinae assessed as mortality at 0.1 g/m'2 after 24 hr relative to control; format: functional
[27] = tested on: Reticulitermes speratus; experiment: Insecticidal activity against Reticulitermes speratus assessed as mortality at 0.04 g/m'2 at 48 hr relative to control; format: functional
[28] = tested on: MDCK; experiment: Cytotoxicity against MDCK cells; format: functional; details: Canis lupus familiaris
[29] = tested on: Reticulitermes speratus; experiment: Insecticidal activity against Reticulitermes speratus assessed as mortality at 0.02 g/m'2 at 24 hr relative to control; format: functional
[30] = tested on: Dermatophagoides farinae; experiment: Acaricidal activity against Dermatophagoides farinae assessed as mortality at 0.01 g/m'2 after 24 hr relative to control; format: functional
[31] = tested on: Reticulitermes speratus; experiment: Insecticidal activity against Reticulitermes speratus assessed as mortality at 0.01 g/m'2 at 48 hr relative to control; format: functional
[32] = tested on: Reticulitermes speratus; experiment: Insecticidal activity against Reticulitermes speratus assessed as mortality at 0.1 g/m'2 at 24 hr relative to control; format: functional
[33] = Cytotoxicity against Mus musculus (mouse) MH134; format: functional
[34] = tested on: Legionella pneumophila; experiment: Antibacterial activity against Legionella pneumophila SG 3 after 7 days by agar dilution method; format: functional; details: SG 3, 168 h
[35] = tested on: Dermatophagoides farinae; experiment: Acaricidal activity against Dermatophagoides farinae assessed as mortality at 0.2 g/m'2 after 24 hr relative to control; format: functional
[36] = tested on: Dermatophagoides farinae; experiment: Acaricidal activity against Dermatophagoides farinae assessed as mortality at 0.5 g/m'2 after 24 hr relative to control; format: functional
[37] = tested on: Dermatophagoides farinae; experiment: Acaricidal activity against Dermatophagoides farinae after 24 hr; format: functional
[38] = tested on: Reticulitermes speratus; experiment: Insecticidal activity against Reticulitermes speratus assessed as mortality at 0.00005 g/m'2 at 48 hr relative to control; format: functional
[39] = tested on: Reticulitermes speratus; experiment: Insecticidal activity against Reticulitermes speratus assessed as mortality at 0.00005 g/m'2 at 24 hr relative to control; format: functional
[40] = tested on: Reticulitermes speratus; experiment: Insecticidal activity against Reticulitermes speratus assessed as mortality at 0.00025 g/m'2 at 48 hr relative to control; format: functional
[41] = tested on: Reticulitermes speratus; experiment: Insecticidal activity against Reticulitermes speratus assessed as mortality at 0.00025 g/m'2 at 24 hr relative to control; format: functional
[42] = tested on: Reticulitermes speratus; experiment: Insecticidal activity against Reticulitermes speratus assessed as mortality at 0.00050 g/m'2 at 24 hr relative to control; format: functional
[43] = tested on: Reticulitermes speratus; experiment: Insecticidal activity against Reticulitermes speratus assessed as mortality at 0.00010 g/m'2 at 24 hr relative to control; format: functional
[44] = tested on: Reticulitermes speratus; experiment: Insecticidal activity against Reticulitermes speratus assessed as mortality at 0.00001 g/m'2 at 24 hr relative to control; format: functional
[45] = tested on: Reticulitermes speratus; experiment: Insecticidal activity against Reticulitermes speratus assessed as mortality at 0.00010 g/m'2 at 48 hr relative to control; format: functional
[46] = tested on: Reticulitermes speratus; experiment: Insecticidal activity against Reticulitermes speratus assessed as mortality at 0.00050 g/m'2 at 48 hr relative to control; format: functional
[47] = tested on: P388; experiment: Growth inhibition of Mus musculus (mouse) P388 cells at 0.63 ug/ml after 24 hr by MTT assay; format: functional; details: P388, 24 h, read-out: GI
[48] = tested on: P388; experiment: Growth inhibition of Mus musculus (mouse) P388 cells at >1.25 ug/ml after 48 hr by MTT assay; format: functional
[49] = tested on: P388; experiment: Growth inhibition of Mus musculus (mouse) P388 cells after 24 to 48 hr by MTT assay; format: functional, cell-based
[50] = tested on: Tyrophagus putrescentiae; experiment: Acaricidal activity against Tyrophagus putrescentiae at high concentration; format: functional, organism-based
[51] = tested on: P388; experiment: Growth inhibition of Mus musculus (mouse) P388 cells at >1.25 ug/ml after 24 hr by MTT assay; format: functional
[52] = tested on: P388; experiment: Growth inhibition of Mus musculus (mouse) P388 cells at 0.63 ug/ml after 48 hr by MTT assay; format: functional; details: P388, 48 h, read-out: GI
[53] = Toxicity against ip dosed Mus musculus Slc:ddY (mouse) after 8 days; format: organism-based; details: in vivo

CC(C)c1cccc(=O)c(O)c1 [HINOKITIOL]
mortality [1]: 100% | mortality [2]: 2.6% | mortality [3]: 100% | LC50 [4]: 0.03 g/m2 | mortality [5]: 13.3% | mortality [6]: 100% | mortality [7]: 0% | MIC [8]: 12 µg/mL (≈ 73.1 µM) | MIC [9]: 12 µg/mL (≈ 73.1 µM) | MIC [10]: 10 µg/mL (≈ 60.9 µM) | IC50 [11]: 0.3 µg/mL (≈ 1.83 µM) | MIC [12]: 25 µg/mL (≈ 152 µM) | mortality [13]: 100% | MIC [14]: 50 µg/mL (≈ 304 µM) | IC50 [15]: 0.3 µg/mL (≈ 1.83 µM) | mortality [16]: 0% | MIC [17]: 12 µg/mL (≈ 73.1 µM) | mortality [18]: 100% | IC50 [19]: 0.3 µg/mL (≈ 1.83 µM) | IC50 [20]: 0.3 µg/mL (≈ 1.83 µM) | mortality [21]: 100% | MIC [22]: 50 µg/mL (≈ 304 µM) | mortality [23]: 11.9% | MIC [24]: 25 µg/mL (≈ 152 µM) | MIC [25]: 6.25 µg/mL (≈ 38.1 µM) | mortality [26]: 99% | mortality [27]: 100% | MIC [28]: 10 µg/mL (≈ 60.9 µM) | mortality [29]: 0% | mortality [30]: 0% | mortality [31]: 0% | mortality [32]: 100% | IC50 [33]: 0.3 µg/mL (≈ 1.83 µM) | MIC [34]: 25 µg/mL (≈ 152 µM)

CCN(CC)C(=O)c1cccc(C)c1 [DIETHYLTOLUAMIDE]
mortality [6]: 45.5% | mortality [35]: 7.2% | mortality [36]: 20.5% | mortality [26]: 0% | LC50 [37]: 0.79 g/m2

CCOP(=S)(OCC)Oc1nc(Cl)c(Cl)cc1Cl [CHLORPYRIFOS]
mortality [38]: 40% | LC50 [4]: 0.00016 g/m2 | mortality [39]: 10% | mortality [40]: 100% | mortality [41]: 60% | mortality [42]: 100% | mortality [43]: 25% | mortality [44]: 0% | mortality [45]: 75% | mortality [46]: 100%

CC[C@]1(O)C[C@@H]2CN(CCc3c([nH]c4ccccc34)[C@@](C(=O)OC)(c3cc4c(cc3OC)N(C)[C@H]3[C@@](O)(C(=O)OC)[C@H](OC(C)=O)[C@]5(CC)C=CCN6CC[C@]43[C@@H]65)C2)C1 [VINBLASTINE]
inhibition of growth at 0.63 µg/mL [47]: 84%

O=c1cccccc1O [TROPOLONE]
IC50 [11]: 0.3 µg/mL (≈ 2.46 µM) | IC50 [15]: 0.3 µg/mL (≈ 2.46 µM) | IC50 [19]: 0.3 µg/mL (≈ 2.46 µM) | IC50 [20]: 0.3 µg/mL (≈ 2.46 µM) | IC50 [33]: 0.3 µg/mL (≈ 2.46 µM)

CC(C)c1ccccc(=O)c1O [ALPHA-THUJAPLICIN]
mortality [1]: 100% | mortality [3]: 100% | LC50 [4]: 0.02 g/m2 | mortality [5]: 0% | mortality [6]: 69.5% | mortality [7]: 0% | MIC [8]: 12 µg/mL (≈ 73.1 µM) | MIC [9]: 12 µg/mL (≈ 73.1 µM) | MIC [12]: 12 µg/mL (≈ 73.1 µM) | growth inhibition (GI) [48]: 100% | growth inhibition (GI) [49]: Dose-dependent effect | mortality [13]: 93.3% | MIC [14]: 50 µg/mL (≈ 304 µM) | mortality [36]: 38.4% | mortality [16]: 0% | MIC [17]: 12 µg/mL (≈ 73.1 µM) | mortality [18]: 100% | Activity [50]: inactive | mortality [21]: 13.3% | MIC [22]: 25 µg/mL (≈ 152 µM) | MIC [24]: 12 µg/mL (≈ 73.1 µM) | MIC [25]: 12.5 µg/mL (≈ 76.1 µM) | mortality [26]: 0% | mortality [27]: 100% | inhibition of growth at 0.63 µg/mL [47]: 78% | mortality [29]: 0% | growth inhibition (GI) [51]: 98% | mortality [30]: 1.1% | mortality [31]: 0% | mortality [32]: 100% | inhibition of growth at 0.63 µg/mL [52]: 68% | LC50 [37]: 0.66 g/m2 | MIC [34]: 50 µg/mL (≈ 304 µM) | LD50 at 192 h [53]: 256 mg/kg
